Laboratory results: US9212168B2 (priority 2011, dated 2015)

How the values were obtained:
[1] = biological target: HCV genotype 1b replicon; experiment: HCV genotype 1b replicon assay (Renilla luciferase readout); format: cell-based, hepatitis C virus; settings: for Genotype 1b: HCV genotype 1b replicon; for EC50: Hepatitis C virus, read-out: Genotype 1b
Summary of the method: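 Reported as pEC50 derived from a 4-parameter fit of Renilla luciferase activity against concentration. Replicon cells (APC144, Huh7 background) were exposed to compound for 48 h in G418-free medium with final 0.5% DMSO, after seeding at 10,000 cells/well and 4 h adherence.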

[2] = tested on: HCV genotype 1a replicon; experiment: HCV genotype 1a replicon assay (NS3 protease activity readout); format: cell-based, hepatitis C virus; settings: for Genotype 1a: HCV genotype 1a replicon; for EC50: Hepatitis C virus, read-out: Genotype 1a, HCV genotype 1a replicon
Summary of the method: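 EC50 values came from a 4-parameter robust fit of fluorescence (ex 340, em 509 nm) produced by NS3-specific protease in lysates, assayed with 15 μM FRET substrate for 20 min at 37° C, after 48 or 72 hours of compound exposure (0.5% DMSO) of Huh7.5-derived APC89 genotype 1a replicon cells.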

| SMILES | Genotype 1b [1] | Genotype 1a [2] | EC50 [1] | EC50 [2] |
| --- | --- | --- | --- | --- |
| COC(=O)N[C@H](C(=O)N1C[C@@H](C)C[C@H]1c1nc(-c2ccc(-c3ccc(C(=O)Nc4ccc(N5C[C@H](C)N(C(=O)C6CC6)C[C@H]5C)nc4)cc3OC(F)(F)F)cc2)c[nH]1)C(C)C [Example 4-16] | D (D represents pEC50>10 (EC50<0.1 nM)) | C (C represents pEC50 between and 9 and about 10, (EC50 between 1 nM and 0.1 nM)) | – | – |
| COC(=O)N[C@H](C(=O)N1C[C@@H](N(C)C)C[C@H]1c1nc(-c2ccc(-c3ccc(NC(=O)c4ccc(N5CCN(C(=O)[C@H]6CC6(C)C)C[C@H]5C)nc4)cc3)cc2)c[nH]1)C(C)C [Example 2-3] | D (D represents pEC50>10 (EC50<0.1 nM)) | D (D represents pEC50>10 (EC50<0.1 nM)) | – | – |
| COC(=O)N[C@H](C(=O)N1[C@@H]2C[C@@H]2C[C@H]1c1nc(-c2ccc(-c3cc(Cl)c(NC(=O)c4ccc(N5CCN(C(=O)C(C)(C)C)C[C@H]5C)nc4)cc3OC(F)(F)F)cc2)c[nH]1)C(C)C [Example 8-2] | – | – | < 0.1 nM | < 0.1 nM |
| COC(=O)N[C@H](C(=O)N1C[C@@H](C)C[C@H]1c1nc(-c2ccc(-c3ccc(C(=O)Nc4ccc(N5CCN(C(=O)C(C)(C)CO)C[C@H]5C)nc4)cc3OC(F)(F)F)cc2)c(Cl)[nH]1)C1CCOCC1 [Example 22-8] | D (D represents pEC50>10 (EC50<0.1 nM)) | D (D represents pEC50>10 (EC50<0.1 nM)) | – | – |
| COC(=O)N[C@H](C(=O)N1C[C@@H](O)C[C@H]1c1nc(-c2ccc(-c3cc(F)c(NC(=O)c4ccc(N5CCN(C(=O)C(C)(C)CO)C[C@H]5C)nc4)cc3OC(F)(F)F)cc2)c[nH]1)C(C)C [Example 26-7] | D (D represents pEC50>10 (EC50<0.1 nM)) | C (C represents pEC50 between and 9 and about 10, (EC50 between 1 nM and 0.1 nM)) | – | – |
| COC(=O)N[C@H](C(=O)N1C[C@@H](C)C[C@H]1c1nc(-c2ccc(-c3ccc(C(=O)Nc4ccc(N5CCN(C(=O)[C@]6(C)CCCN6C(=O)OC(C)C)C[C@H]5C)nc4)cc3OC(F)(F)F)cc2)c[nH]1)C(C)C [Example 4-5] | D (D represents pEC50>10 (EC50<0.1 nM)) | D (D represents pEC50>10 (EC50<0.1 nM)) | – | – |
| COC(=O)N[C@H](C(=O)N1C[C@@H](C)C[C@H]1c1nc(-c2ccc(-c3cc(Cl)c(NC(=O)c4ccc(N5CCN(C(=O)C67CC(CO)(C6)C7)C[C@H]5C)nc4)cc3OC(F)(F)F)cc2)c[nH]1)C(C)C [Example 12-50] | – | – | < 0.1 nM | < 0.1 nM |
| COC(=O)N[C@H](C(=O)N1C[C@@H](C)C[C@H]1c1nc(-c2ccc(-c3cc(F)c(NC(=O)c4ccc(N5CCN(C(=O)C(C)(C)C)C[C@H]5C)nc4)cc3OC(F)(F)F)cc2)c[nH]1)[C@H](C)O [Example 13-20] | – | – | < 0.1 nM | < 0.1 nM |
| COC(=O)N[C@H](C(=O)N1C[C@@H](C)C[C@H]1c1nc(-c2ccc(-c3ccc(C(=O)Nc4ccc(N5CCN(C(=O)C(C)(C)C)C[C@H]5C)nc4)cc3OC(F)(F)F)cc2)c(F)[nH]1)C(C)C [Example 4-42] | D (D represents pEC50>10 (EC50<0.1 nM)) | D (D represents pEC50>10 (EC50<0.1 nM)) | – | – |
| COC(=O)N[C@H](C(=O)N1C[C@@H](C)C[C@H]1c1nc(-c2ccc(-c3cc(Cl)c(NC(=O)c4ccc(N5C[C@H](C)N(C(=O)[C@H]6CC6(C)C)C[C@H]5C)nc4)cc3OC(F)(F)F)cc2)c[nH]1)C(C)C [Example 1-20] | D (D represents pEC50>10 (EC50<0.1 nM)) | D (D represents pEC50>10 (EC50<0.1 nM)) | – | – |
| COC(=O)N[C@H](C(=O)N1C[C@@H](C)C[C@H]1c1nc(-c2ccc(-c3cc(Cl)c(NC(=O)c4ccc(N5CCN(C(=O)NN6CCOC6=O)C[C@H]5C)nc4)cc3OC(F)(F)F)cc2)c[nH]1)C(C)C [Example 12-17] | – | – | < 0.1 nM | < 0.1 nM |
| COC(=O)NC(C(=O)N1CC(OC)CC1c1nc(-c2ccc(-c3cc(F)c(NC(=O)c4ccc(N5CCN(C(=O)C(C)(C)C)CC5C)nc4)cc3OC(F)(F)F)cc2)c[nH]1)C(C)O (centres unmarked) [Example 16-4] | D (D represents pEC50>10 (EC50<0.1 nM)) | D (D represents pEC50>10 (EC50<0.1 nM)) | – | – |
| COC(=O)NC(C(=O)N1CC(C)CC1c1nc(-c2ccc(-c3cc(F)c(NC(=O)c4ccc(N5CCN(C(=O)C6CC6(F)F)CC5C)nc4)cc3C(F)(F)F)cc2)c[nH]1)C(C)C (mixture of isomers) [Example 1-53] | D (D represents pEC50>10 (EC50<0.1 nM)) | D (D represents pEC50>10 (EC50<0.1 nM)) | – | – |
| COC(=O)N[C@H](C(=O)N1[C@@H](C)CC[C@H]1c1nc(-c2ccc(-c3cc(Cl)c(NC(=O)c4ccc(N5CCN(C(=O)C(C)(C)C)C[C@H]5C)nc4)cc3C(F)(F)F)cc2)c[nH]1)C(C)C [Example 17-2] | D (D represents pEC50>10 (EC50<0.1 nM)) | D (D represents pEC50>10 (EC50<0.1 nM)) | – | – |
| COCC(=O)N1CCC[C@@]1(C)C(=O)N1C[C@@H](C)N(c2ccc(NC(=O)c3ccc(-c4ccc(-c5c[nH]c([C@@H]6C[C@H](C)CN6C(=O)[C@@H](NC(=O)OC)C(C)C)n5)cc4)c(OC(F)(F)F)c3)cn2)C[C@@H]1C [Example 4-8] | D (D represents pEC50>10 (EC50<0.1 nM)) | D (D represents pEC50>10 (EC50<0.1 nM)) | – | – |
| CNC(=O)N1C[C@@H](C)N(c2ccc(NC(=O)c3ccc(-c4ccc(-c5nc([C@@H]6C[C@H](C)CN6C(=O)[C@@H](NC(=O)OC)C(C)C)[nH]c5Cl)cc4)c(OC(F)(F)F)c3)cn2)C[C@@H]1C [Example 4-12] | D (D represents pEC50>10 (EC50<0.1 nM)) | D (D represents pEC50>10 (EC50<0.1 nM)) | – | – |
| COC(=O)N[C@H](C(=O)N1C[C@@H](OC)C[C@H]1c1nc(-c2ccc(-c3cc(Cl)c(NC(=O)c4ccc(N5CCN(C(=O)C(C)(C)C)C[C@H]5C)nc4)cc3OC(F)(F)F)cc2)c(CO)[nH]1)C(C)C [Example 5-18] | – | – | < 0.1 nM | < 0.1 nM |
| COC(=O)N[C@H](C(=O)N1C[C@@H](O)C[C@H]1c1nc(-c2ccc(-c3ccc(NC(=O)c4ccc(N5CCN(C(=O)[C@H]6CC6(C)C)C[C@H]5C)nc4)cc3)cc2)c[nH]1)C(C)C [Example 26-4] | D (D represents pEC50>10 (EC50<0.1 nM)) | C (C represents pEC50 between and 9 and about 10, (EC50 between 1 nM and 0.1 nM)) | – | – |
| COC(=O)N[C@H](C(=O)N1C[C@@H](C)C[C@H]1c1nc(-c2ccc(-c3cc(Cl)c(NC(=O)c4ccc(N5CCN(C(=O)c6nccn6C)C[C@H]5C)nc4)cc3OC(F)(F)F)cc2)c[nH]1)C(C)C [Example 1-36] | D (D represents pEC50>10 (EC50<0.1 nM)) | D (D represents pEC50>10 (EC50<0.1 nM)) | – | – |
| CNC(=O)N1C[C@@H](C)N(c2ccc(C(=O)Nc3cc(OC(F)(F)F)c(-c4ccc(-c5c[nH]c([C@@H]6C[C@H](C)CN6C(=O)[C@@H](NC(=O)OC)C(C)C)n5)cc4)cc3F)cn2)C[C@@H]1C [Example 1-16] | D (D represents pEC50>10 (EC50<0.1 nM)) | D (D represents pEC50>10 (EC50<0.1 nM)) | – | – |
| COCC(C)(C)C(=O)N1CCN(c2ccc(C(=O)Nc3cc(OC(F)(F)F)c(-c4ccc(-c5c[nH]c([C@@H]6C[C@H](C)CN6C(=O)[C@@H](NC(=O)OC)C(C)C)n5)cc4)cc3Cl)cn2)[C@H](C)C1 [Example 12-32] | – | – | < 0.1 nM | < 0.1 nM |
| COC(=O)N[C@H](C(=O)N1C[C@@H](C)C[C@H]1c1nc(-c2ccc(-c3cc(Cl)c(C(=O)Nc4ccc(N5CCN(C(=O)C(C)(C)C)C[C@H]5C)nc4)cc3OC(F)(F)F)cc2)c[nH]1)C(C)C [Example 4-46] | D (D represents pEC50>10 (EC50<0.1 nM)) | D (D represents pEC50>10 (EC50<0.1 nM)) | – | – |
| COCC1(C(=O)N2CCN(c3ccc(C(=O)Nc4cc(OC(F)(F)F)c(-c5ccc(-c6c[nH]c([C@@H]7C[C@H](OC)CN7C(=O)[C@@H](NC(=O)OC)C7CCOCC7)n6)cc5)cc4Cl)cn3)[C@H](C)C2)CCC1 [Example 28-22] | D (D represents pEC50>10 (EC50<0.1 nM)) | D (D represents pEC50>10 (EC50<0.1 nM)) | – | – |
| COC(=O)N[C@H](C(=O)N1C[C@@H](C)C[C@H]1c1nc(-c2ccc(-c3cc(F)c(NC(=O)c4ccc(N5CCN(C(=O)C6CC6)C[C@H]5C)nc4)cc3OC(F)(F)F)cc2)c[nH]1)C(C)C [Example 1-3] | D (D represents pEC50>10 (EC50<0.1 nM)) | D (D represents pEC50>10 (EC50<0.1 nM)) | – | – |
| CNC(=O)N1C[C@@H](C)N(c2ccc(NC(=O)c3ccc(-c4ccc(-c5c[nH]c([C@@H]6C[C@H](C)CN6C(=O)[C@@H](NC(=O)OC)C(C)C)n5)cc4)c(OC(F)(F)F)c3)cn2)C[C@@H]1C [Example 4-14] | D (D represents pEC50>10 (EC50<0.1 nM)) | C (C represents pEC50 between and 9 and about 10, (EC50 between 1 nM and 0.1 nM)) | – | – |
| COC(=O)N[C@H](C(=O)N1C[C@@H](C)C[C@H]1c1nc(-c2ccc(-c3cc(F)c(NC(=O)c4ccc(N5CCN(C(=O)C(C)(C)C)C[C@H]5C)nc4)cc3OC(F)(F)F)cc2)c[nH]1)[C@H](C)OC [Example 13-21] | – | – | < 0.1 nM | < 0.1 nM |
| COC(=O)NC(C(=O)N1CC(C)CC1c1nc(-c2ccc(-c3ccc(NC(=O)c4ccc(N5CCN(C(=O)C(C)(C)CO)CC5C)nc4)cc3OC(F)(F)F)cc2)c[nH]1)C(C)(C)O (centres unmarked) [Example 13-28] | D (D represents pEC50>10 (EC50<0.1 nM)) | D (D represents pEC50>10 (EC50<0.1 nM)) | – | – |
| COC(=O)N[C@H](C(=O)N1C[C@@H](C)C[C@H]1c1nc(-c2ccc(-c3cc(Cl)c(C(=O)Nc4ccc(N5CCN(C(=O)C(C)(C)C)[C@H](C)C5)nc4)cc3OC(F)(F)F)cc2)c[nH]1)C1CCOCC1 [24-3] | D (D represents pEC50>10 (EC50<0.1 nM)) | C (C represents pEC50 between and 9 and about 10, (EC50 between 1 nM and 0.1 nM)) | – | – |
